Data: US10138207B2, “Benzomorphan analogs and the use thereof” (priority 2012, dated 2018)
Where two headings read alike, the source gives them in different places.

Columns and labels:
[1] = biological target: T1, κ opioid receptor (Homo sapiens, UniProt P41145); test: biochemical; assay type: binding; set-up: expressed in transfected cells; host or cells: HEK 293 (in-house membrane prep); conditions: HEK-293 or CHO cells
[2] = biological target: μ-opioid receptor (Homo sapiens, UniProt P35372); test: μ-opioid receptor [35S]GTPγS functional assay, U-2 OS cells; assay type: biochemical; set-up: expressed in transfected cells; host or cells: U-2 OS; conditions: U-2 OS cells; for EC50: read-out: GTPγS μ EC50; for Emax: relative to DAMGO, read-out: GTPγS μ Emax
Sequence of μ-opioid receptor (P35372 whole entry, species assumed): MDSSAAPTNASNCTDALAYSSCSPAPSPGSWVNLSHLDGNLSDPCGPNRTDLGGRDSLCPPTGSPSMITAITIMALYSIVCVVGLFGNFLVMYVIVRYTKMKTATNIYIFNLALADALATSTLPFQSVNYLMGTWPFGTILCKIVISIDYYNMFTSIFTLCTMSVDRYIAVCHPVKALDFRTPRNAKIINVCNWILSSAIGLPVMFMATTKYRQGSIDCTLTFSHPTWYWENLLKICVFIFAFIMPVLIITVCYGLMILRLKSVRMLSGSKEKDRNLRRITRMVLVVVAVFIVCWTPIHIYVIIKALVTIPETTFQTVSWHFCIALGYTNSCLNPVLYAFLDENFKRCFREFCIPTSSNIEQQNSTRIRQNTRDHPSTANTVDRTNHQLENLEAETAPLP

[3] = biological target: T1, κ opioid receptor; test: κ-opioid receptor [35S]GTPγS functional assay, HEK-293 or CHO cells; assay type: biochemical; set-up: expressed in transfected cells; host or cells: U-2 OS (in-house membranes); conditions: HEK-293 or CHO cells; for EC50: read-out: GTPγS κ EC50; for Emax: relative to U69,593
Protocol: Membranes from recombinant HEK-293 cells, CHO or U-2 OS cells expressing the recombinant human κ opioid receptor (κ) were prepared by lysing cells in ice cold hypotonic buffer (2.5 mM MgCl2, 50 mM HEPES, pH 7.4) (10 mL/10 cm dish) followed by homogenization with a tissue grinder/Teflon pestle. Membranes from a cell line naturally expressing kappa opioid receptors can also be used. Membranes were collected by centrifugation at 30,000×g for 15 min at 4° C. and pellets were resuspended in hypotonic buffer to a final concentration of 1-3 mg/mL. Protein concentrations were determined using the BioRad protein assay reagent with bovine serum albumen as standard. Aliquots of κ receptor membranes were stored at −80° C.
Plates were incubated for 30 min at a temperature of about 25° C. with shaking.

T1 sequence (P41145 whole entry): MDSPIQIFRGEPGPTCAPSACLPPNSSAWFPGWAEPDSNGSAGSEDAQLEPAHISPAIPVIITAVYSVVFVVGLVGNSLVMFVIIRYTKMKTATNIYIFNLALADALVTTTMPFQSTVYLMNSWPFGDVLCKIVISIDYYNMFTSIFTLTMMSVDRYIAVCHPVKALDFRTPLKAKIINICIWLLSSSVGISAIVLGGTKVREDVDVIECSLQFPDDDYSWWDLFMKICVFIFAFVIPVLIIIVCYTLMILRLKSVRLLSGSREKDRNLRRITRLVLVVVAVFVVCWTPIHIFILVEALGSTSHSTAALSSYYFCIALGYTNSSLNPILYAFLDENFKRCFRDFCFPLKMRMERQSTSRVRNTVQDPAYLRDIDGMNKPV

Compound | Ki [1] [nM] | EC50 [2] [nM] | Emax [2] [%] | EC50 ([3]; bound in μM) [µM] | EC50 [3] [µM] | Emax [3] [%]
CN(C)C(=O)C(CCN1CC[C@]2(C)c3cc(O)ccc3CC1[C@H]2O)(c1ccccc1)c1ccccc1 [Compound 22, 4-((6R,11S)-8,11-dihydroxy-6-methyl-1,2,5,6-tetrahydro-2,6-methanobenzo[d]azocin-3(4H)-yl)-N,N-dimethyl-2,2-diphenylbutanamide] | 25.7 ± 8.74 | 300 ± 45.8 | 71 ± 3.46 | > 20 |  | 
COc1ccc2c(c1)[C@@]1(C)CCN(C)C(C2)[C@@H]1N(C)C(=O)/C=C/c1ccoc1 [Compound 16, (E)-3-(furan-3-yl)-N-((6R,11R)-8-methoxy-3,6-dimethyl-1,2,3,4,5,6-hexahydro-2,6-methanobenzo[d]azocin-11-yl)-N-methylacrylamide] | 186 ± 34 |  |  |  | 1.05 ± 0.262 | 15 ± 1.53
CN1CC[C@]2(C)c3cc(O)ccc3CC1C2N(C)C(=O)/C=C/c1ccoc1 (stereo in doubt) [Compound 24, (E)-3-(furan-3-yl)-N-((2R,6R,11S)-8-hydroxy-3,6-dimethyl-1,2,3,4,5,6-hexahydro-2,6-methanobenzo[d]azocin-11-yl)-N-methylacrylamide] | 1.17 ± 0.09 |  |  |  | 0.178 ± 0.0251 | 30.7 ± 2.6
CN1CC[C@]2(C)c3cc(O)ccc3CC1C2N(C)CCc1ccccc1 (stereo in doubt) [Compound 29, (2R,6R,11S)-3,6-dimethyl-11-(methyl(phenethyl)amino)-1,2,3,4,5,6-hexahydro-2,6-methanobenzo[d]azocin-8-ol] | 30.1 ± 11.8 | 0.044 | 100 ± 1.45 |  | 0.233 ± 0.0749 | 28.2 ± 4.66
CCN(C(=O)/C=C/c1ccoc1)C1C2Cc3ccc(OC)cc3[C@@]1(C)CCN2C (stereo in doubt) [Compound 25, (E)-N-ethyl-3-(furan-3-yl)-N-((2R,6R,11S)-8-methoxy-3,6-dimethyl-1,2,3,4,5,6-hexahydro-2,6-methanobenzo[d]azocin-11-yl)acrylamide] | 147 ± 18.4 | 49.8 ± 12.1 | 102 ± 1.67 | > 20 |  | -1
COc1ccc2c(c1)[C@@]1(C)CCN(CCC(C(=O)N(C)C)(c3ccccc3)c3ccccc3)C(C2)[C@H]1O [Compound 17, 4-((6R,11S)-11-hydroxy-8-methoxy-6-methyl-1,2,5,6-tetrahydro-2,6-methanobenzo[d]azocin-3(4H)-yl)-N,N-dimethyl-2,2-diphenylbutanamide] | 89.9 ± 14.7 |  |  | > 20 |  | 
CN1CC[C@]2(C)c3cc(O)ccc3CC1C2N(C)C(=O)Nc1ccc(C#N)cc1 (stereo in doubt) [Compound 78, 3-(4-cyanophenyl)-1-((2R,6R,11S)-8-hydroxy-3,6-dimethyl-1,2,3,4,5,6-hexahydro-2,6-methanobenzo[d]azocin-11-yl)-1-methylurea] | 17.9 ± 4.33 | 6.09 ± 0.45 | 109 ± 3.28 | > 20 |  | 
COc1ccc2c(c1)C1(C)CCN(CCC(C(=O)N(C)C)(c3ccccc3)c3ccccc3)C(C2)C1(O)O (stereo not drawn) [Compound 7, 4-(11,11-dihydroxy-8-methoxy-6-methyl-1,2,5,6-tetrahydro-2,6-methanobenzo[d]azocin-3(4H)-yl)-N,N-dimethyl-2,2-diphenylbutanamide] | 279 ± 39.8 |  |  | > 20 |  | -0.33 ± 0.67
CN1CC[C@]2(C)c3cc(O)ccc3CC1C2N(C)C(=O)Cc1ccc(S(C)(=O)=O)cc1 (stereo in doubt) [Compound 27, N-((2R,6R,11S)-8-hydroxy-3,6-dimethyl-1,2,3,4,5,6-hexahydro-2,6-methanobenzo[d]azocin-11-yl)-N-methyl-2-(4-(methylsulfonyl)phenyl)acetamide] | 35.2 ± 9.38 | 1.51 ± 0.24 | 103 ± 2.33 | > 20 |  | 
